# Assay results reported in US20250000936A1, “TREATMENT OF GEOGRAPHIC ATROPHY” (Apellis Pharmaceuticals, Inc., priority 2021, published 2025).
# Experiments:
# [1] = system: patients with geographic atrophy (GA) secondary to age-related macular degeneration (AMD); assay: DERBY and OAKS combined: safety; conditions: for CNV type on FA at eAMD study visit: Active leakage with low likelihood of CNV / CNV type on FA at eAMD study visit: Classic / CNV type on FA at eAMD study visit: Classic + occult / CNV type on FA at eAMD study visit: Occult / investigator-reported events of eAMD, double-layer sign (DLS) present in the study eye / investigator-reported events of eAMD, CNV present in the fellow eye / investigator-reported events of eAMD, CNV absent in the fellow eye / investigator-reported events of eAMD, double-layer sign (DLS) absent in the study eye: through month 18; for Investigator-determined new-onset eAMD in fellow eyes: through 18 months; for combined rate of new-onset exudations: month 24
# Method: All randomized subjects returned every month to the clinical site for assessments and additional pegcetacoplan or sham injections according to their randomization scheme until Month 12. From Month 12 onwards, subjects return to the clinical site based on their randomized treatment schedule (monthly or EOM) and follow the treatment regimen and assessments outlined in the Visit Schedule until Month 24. Safety was assessed throughout the study by a number of evaluations including: monitoring of AEs, preinjection and postinjection monitoring, blood and urine samples collected, physical examination, vital signs, and follow-up phone calls. Blood samples were also be collected for anti-therapeutic antibodies, genotyping, and clinical repository (if the subject consented to this portion).
# The Safety set consisted of all subjects randomized who received at least one injection of pegcetacoplan or sham. Subjects were analyzed according to the actual treatment received. […] This population was used for all safety analyses.
# [2] = system: patients with geographic atrophy (GA) secondary to age-related macular degeneration (AMD); assay: DERBY Phase 3 study: GA lesion growth in study eye by fundus autofluorescence; assay type: in vivo, human; conditions: for reduction in GA lesion growth from baseline compared to sham: over 24 months; for reduction in lesion growth in the study eye versus the untreated study eye: bilateral GA; for reduction in lesion growth in the study eye versus the untreated study eye / percentage reduction versus sham pooled: 18 months
# Source text: This Example describes 12-month results from two Phase 3 multi-center, randomized, double-masked, sham-controlled studies (“DERBY” and “OAKS”) to compare the efficacy and safety of intravitreal APL-2 (pegcetacoplan, also referred to as “Study Drug” in this Example) therapy with sham injections in patients with geographic atrophy (GA) secondary to age-related macular degeneration (AMD).
# To participate in the studies, subjects must have been diagnosed with GA of the macula secondary to AMD in the study eye. At screening, male and female subjects were required to fulfill all of the following inclusion criteria to be eligible for participation in the study. If both eyes met the inclusion criteria, the eye with the worst normal luminance visual acuity at the screening visit was designated as the study eye. If both eyes had the same visual acuity, the right eye was selected as the study eye. Ocular-specific inclusion criteria applied to the study eye only, unless otherwise specified.
# The design of the DERBY and OAKS studies are schematically depicted in FIG. 2. Each subject was assigned a unique screening number after signing the informed consent. Subjects who completed the study screening assessments and met all the eligibility criteria entered the study and were randomized on Day 1. As part of the screening process, the reading center evaluated FAF, OCT, Digital Color Fundus Photograph (DCFP), Near Infrared Reflectance (NIR), and fluorescein angiography (FA) to provide an objective assessment of subject eligibility. Subjects were randomized 2:2:1:1 to receive treatment with Study Drug monthly (PM), Study Drug every other month (PEOM), sham injection monthly (SM) or sham injection every other month (SEOM), respectively.
# The Study Drug was pegcetacoplan (also referred to as “APL-2”) (see FIG. 1), which was provided for intravitreal injection at 15 mg/0.1 mL (150 mg/mL) as a sterile, isotonic solution of pegcetacoplan in acetate-buffer, pH 5.0, containing trehalose, supplied in stoppered glass vials.
# The primary endpoint in the studies was the change from baseline to Month 12 in total area of GA lesion(s) in the study eye (in mm^2) based on Fundus Autofluorescence (FAF). Key secondary endpoints included change from baseline in the mean threshold sensitivity of all points (study eye) assessed by mesopic microperimetry at Month 24; change from baseline in monocular maximum reading speed (study eye), at Month 24 as assessed by MNRead or Radner reading charts (in select sites); change from baseline in mean FRI Index score (subject-level assessment) at Month 24; and change from baseline in NL-BCVA score (study eye) at Month 24 as assessed by Early Treatment Diabetic Retinopathy Study (ETDRS) chart. Additional secondary endpoints included change from baseline in LL-BCVA score (study eye) over time as assessed by ETDRS chart; change from baseline in the total area of GA lesion(s) in the study eye (in mm^2) as assessed by FAF over time other than Month 12; change from baseline in monocular critical print size (study eye), as assessed by MNRead or Radner reading charts (in select sites) over time; change from baseline in the NEI VFQ-25 distance activity subscale score (in select sites) (subject level assessment) over time; change from baseline in the number of scotomatous points assessed by mesopic microperimetry over time; and change from baseline in the mean threshold sensitivity within 500 microns outside the GA lesion, (perilesional points) assessed by mesopic microperimetry over time.
# Two sham treatment arms (SM and SEOM) were pooled into a single control (Sham) group for analyses.
# Subjects were analyzed in the treatment arm assigned at randomization.
# Unless otherwise noted, hypothesis testing and estimation of treatment effects will be performed with a mixed effect model for repeated measure (MMRM) that includes data from all three treatment arms (PM, PEOM, and Sham). […]
# [3] = combined, PEOM (every other month), N=21 events
# [4] = combined, PM (monthly), N=26 events
# [5] = combined, between months 18 and 24
# [6] = post-hoc quartiles of GA lesion growth over 18 months (FIG. 27)
substance,measurement,setting,value
"Poly(oxy-1,2-ethanediyl), α-hydro-ω-hydroxy-, 15,15′-diester with N-acetyl-L-isoleucyl-L-cysteinyl-L-valyl-1-methyl-L-tryptophyl-L-glutaminyl-L-α-aspartyl-L-tryptophylglycyl-L-alanyl-L-histidyl-L-arginyl-L-cysteinyl-L-threonyl-2-[2-(2-aminoethoxy) ethoxy]acetyl-N^6-carboxy-L-lysinamide cyclic (2->12)-(disulfide) [pegcetacoplan]",tolerability,"[1]; both Phase 3 studies, 12 months",well tolerated
same,events of retinal vasculitis or retinal vein occlusion,"[1]; combined, 12 months",No events
same,intraocular inflammation events,"[1]; combined, 12 months, thirteen events",0.21 % per injection
same,CNV type on FA at eAMD study visit: Active leakage with low likelihood of CNV,[1]; [3],0 n (%)
same,CNV type on FA at eAMD study visit: Classic,[1]; [3],"1 (4,8%) n (%)"
same,CNV type on FA at eAMD study visit: Classic + occult,[1]; [3],0 n (%)
same,CNV type on FA at eAMD study visit: Occult,[1]; [3],20 (95.2%) n (%)
same,Investigator-determined new-onset eAMD in fellow eyes,"[1]; combined, PEOM (every other month), 339 patients without baseline fellow eye CNV",13 (3.8%) n (%)
same,CNV type on FA at eAMD study visit: Active leakage with low likelihood of CNV,[1]; [4],3 (11.5%) n (%)
same,CNV type on FA at eAMD study visit: Classic,[1]; [4],1 (3.8%) n (%)
same,CNV type on FA at eAMD study visit: Classic + occult,[1]; [4],0 n (%)
same,CNV type on FA at eAMD study visit: Occult,[1]; [4],22 (84.6%) n (%)
same,Investigator-determined new-onset eAMD in fellow eyes,"[1]; combined, PM (monthly), 335 patients without baseline fellow eye CNV",12 (3.6%) n (%)
same,cases of endophthalmitis,[1]; [5],No cases
same,serious adverse events of ischemic optic neuropathy,[1]; [5],no serious adverse events
same,"pooled rate of new-onset exudations (investigator-determined eAMD), patients","[1]; combined, every other month, 12 months",4.1%
same,rate of new-onset exudations,"[1]; combined, every other month, month 18, 26/420 patients",6.2%
same,combined rate of new-onset exudations,"[1]; combined, every other month",6.7%
same,"investigator-reported events of eAMD, double-layer sign (DLS) present in the study eye","[1]; combined, every other month, 6/73 patients",8.2%
same,"investigator-reported events of eAMD, CNV present in the fellow eye","[1]; combined, every other month, 8/81 patients",9.9%
same,"investigator-reported events of eAMD, CNV absent in the fellow eye","[1]; combined, every other month, 18/338 patients",5.3%
same,"investigator-reported events of eAMD, double-layer sign (DLS) absent in the study eye","[1]; combined, every other month, 20/345 patients",5.8%
same,events of retinal vasculitis or retinal vein occlusion,"[1]; combined, month 18",No events
same,rate of intraocular inflammation,"[1]; combined, month 18",0.23 % per injection
same,"pooled rate of new-onset exudations (investigator-determined eAMD), patients","[1]; combined, monthly, 12 months",6.0%
same,rate of new-onset exudations,"[1]; combined, monthly, month 18, 40/419 patients",9.5%
same,combined rate of new-onset exudations,"[1]; combined, monthly",11.9%
same,"investigator-reported events of eAMD, double-layer sign (DLS) present in the study eye","[1]; combined, monthly, 8/79 patients",10.1%
same,"investigator-reported events of eAMD, CNV present in the fellow eye","[1]; combined, monthly, 8/84 patients",9.5%
same,"investigator-reported events of eAMD, CNV absent in the fellow eye","[1]; combined, monthly, 32/335 patients",9.6%
same,"investigator-reported events of eAMD, double-layer sign (DLS) absent in the study eye","[1]; combined, monthly, 32/336 patients",9.5%
same,events of occlusive vasculitis or retinitis,"[1]; combined, over 24 months",No events
same,rate of intraocular inflammation,"[1]; combined, over 24 months",0.24 % per injection
same,reduction of GA lesion growth versus sham,"[2]; EOM, months 18-24, p=0.0002",29%
same,reduction in GA lesion growth from baseline compared to sham,"[2]; EOM, p 0.0030 nominal",16%
same,reduction in lesion growth in the study eye versus the untreated study eye,"[2]; every other month, p<0.0001",16%
same,reduction in lesion growth in the study eye versus the untreated study eye,"[2]; monthly, p=0.0053",12%
same,reduction in GA lesion growth versus sham,"[2]; distance >250 microns, every other month, p=0.0689",19%
same,reduction in GA lesion growth versus sham,"[2]; distance >250 microns, monthly, p=0.2691",13%
same,reduction in GA lesion growth versus sham,"[2]; distance ≤250 microns, every other month, p=0.0724",12%
same,reduction in GA lesion growth versus sham,"[2]; distance ≤250 microns, monthly, p=0.0490",12%
same,percentage reduction versus sham pooled,"[2]; every other month, >50 microns, p=0.0047",24%
same,percentage reduction versus sham pooled,"[2]; every other month, >100 microns, p=0.0022",26%
same,percentage reduction versus sham pooled,"[2]; every other month, >150 microns, p=0.0076",24%
same,percentage reduction versus sham pooled,"[2]; every other month, >200 microns, p 0.0229",20%
same,reduction in GA lesion growth vs pooled sham,"[2]; every other month, month 12, p=0.0750",11%
same,"reduction in GA lesion growth, covariate-adjusted post-hoc analysis","[2]; every other month, month 18, p=0.0023",16%
same,"reduction in extrafoveal GA lesion growth, covariate-adjusted","[2]; every other month, month 18, p=0.0035",24%
same,reduction in extrafoveal GA lesion growth vs pooled sham,"[2]; every other month, month 18, p=0.0075",23%
same,reduction in GA lesion growth vs pooled sham,"[2]; every other month, month 18, p=0.0332 nominal",12%
same,"reduction in foveal GA lesion growth, covariate-adjusted","[2]; every other month, month 18, p=0.1723",9%
same,reduction in foveal GA lesion growth vs pooled sham,"[2]; every other month, month 18, p=0.5538",4%
same,reduction in GA lesion growth vs pooled sham,"[2]; every other month, months 6-12 segment (FIG. 12A)",16%
same,percentage reduction versus sham pooled,"[2]; monthly, >50 microns, p=0.0433",18%
same,percentage reduction versus sham pooled,"[2]; monthly, >100 microns, p=0.0266",20%
same,percentage reduction versus sham pooled,"[2]; monthly, >150 microns, p 0.0468",19%
same,percentage reduction versus sham pooled,"[2]; monthly, >200 microns, p=0.0985",16%
same,reduction in GA lesion growth vs pooled sham,"[2]; monthly, month 12, p=0.0528",12%
same,reduction in GA lesion growth vs pooled sham,"[2]; monthly, month 18, p 0.0254 nominal",13%
same,"reduction in GA lesion growth, covariate-adjusted post-hoc analysis","[2]; monthly, month 18, p=0.0024",16%
same,"reduction in foveal GA lesion growth, covariate-adjusted","[2]; monthly, month 18, p=0.0280",14%
same,"reduction in extrafoveal GA lesion growth, covariate-adjusted","[2]; monthly, month 18, p=0.0380",18%
same,reduction in extrafoveal GA lesion growth vs pooled sham,"[2]; monthly, month 18, p=0.0606",17%
same,reduction in foveal GA lesion growth vs pooled sham,"[2]; monthly, month 18, p=0.2015",9%
same,reduction in GA lesion growth vs pooled sham,"[2]; monthly, months 6-12 segment (FIG. 12A)",17%
same,reduction of GA lesion growth versus sham,"[2]; monthly, months 18-24, p<0.0001",36%
same,reduction in GA lesion growth from baseline compared to sham,"[2]; monthly, p=0.0004 nominal",19%
same,"decrease of patients in Q4 (fast progressors), relative to sham",[2]; [6],33%
same,"increase of patients in Q1 (slow progressors), relative to sham",[2]; [6],15%
